Source: US20100286136A1, “DIHYDRONAPHTHYRIDINYL AND RELATED COMPOUNDS FOR USE IN TREATING OPHTHALMOLOGICAL DISORDERS” (priority 2009, published 2010)

Target: T1, CCR2b (Homo sapiens, UniProt P41597)
T1 construct: host or cells: AequoScreen CCR2b cells
T1 sequence (P41597 1-360 isoform P41597-2): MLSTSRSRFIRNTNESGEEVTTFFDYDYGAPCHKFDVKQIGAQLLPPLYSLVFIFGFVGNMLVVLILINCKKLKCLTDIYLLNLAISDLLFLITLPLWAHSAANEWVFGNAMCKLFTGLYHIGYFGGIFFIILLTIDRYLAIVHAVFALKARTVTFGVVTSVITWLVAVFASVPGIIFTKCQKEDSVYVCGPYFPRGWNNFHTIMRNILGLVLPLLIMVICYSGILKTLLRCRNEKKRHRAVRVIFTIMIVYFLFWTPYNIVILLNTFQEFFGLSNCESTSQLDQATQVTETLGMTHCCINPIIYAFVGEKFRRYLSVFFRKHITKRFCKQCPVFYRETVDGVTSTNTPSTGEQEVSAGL
Assay: AequoScreen CCR2b calcium flux assay, antagonist mode against reference agonist MCP-1
Type: cell-based
Settings: AequoScreen CCR2b (FAST-060A) cells; inhibition of reference agonist MCP-1 at its EC80; read-out: IC50 (μM) Ca^++flux
Method: The biological activity of the compounds described herein can be evaluated using assays known in the art, such as the AequoScreen™ assay.
AequoScreen™ CCR2b (FAST-060A) cells grown to mid-log phase in culture media without antibiotics are detached with PBS-EDTA, centrifuged and resuspended in assay buffer (DMEM/HAM's F12 with HEPES, without phenol red+0.1% BSA protease free) at a concentration of 1×10^6 cells/mL. Cells are incubated at room temperature for at least 4 hours with coelenterazine h. Dose response curves are performed before testing. The reference agonist is MCP-1.
For agonist testing, 50 μL of cell suspension is mixed with 50 μL of test compound in a 96-well plate. The resulting emission of light is recorded using a Hamamatsu Functional Drug Screening System 6000 (FDSS 6000).
Following an incubation of 15 minutes after the first injection, 100 μL of the resulting cell suspension containing the test compound is mixed with 100 μL of the reference agonist in the 96 well test plate. The resulting emission of light is recorded using the same luminometer as for agonist testing.
Agonist activity of a test compound can be expressed as a percentage of the activity of the reference agonist at its EC100 concentration. Antagonist activity of a test compound can be expressed as a percentage of the inhibition of reference agonist activity at its EC80 concentration.

IC50 [µM]	Compound
< 0.2	3-Ethyl-6-((3-(methoxymethyl)-3-(3-(trifluoromethyl)-5,6,7,8-tetrahydro-1,6-naphthyridine-6-carbonyl)pyrrolidin-1-yl)methyl)benzo[d]oxazol-2(3H)-one [Example 42]
< 0.2	5-Bromo-6-((3-(methoxymethyl)-3-(3-(trifluoromethyl)-5,6,7,8-tetrahydro-1,6-naphthyridine-6-carbonyl)pyrrolidin-1-yl)methyl)-3-methylbenzo[d]oxazol-2(3H)-one [Example 43]
< 0.2	Cn1c(=O)ccc2ccc(CN3CCC(CC4CC4)(C(=O)N4CCc5ncc(C(F)(F)F)cc5C4)C3)cc21 (single isomer, unassigned) [Example 4, 5 (Enantiomer I)]
< 0.2	Cn1c(=O)ccc2ccc(CN3CCC(CC4CC4)(C(=O)N4CCc5ncc(C(F)(F)F)cc5C4)C3)cc21 (single isomer, unassigned) [Example 4, 5 (Enantiomer II)]
< 0.2	COCC1(C(=O)N2CCc3ncc(C(F)(F)F)cc3C2)CCN(Cc2ccc3ccc(=O)n(C)c3c2)C1 (single isomer, unassigned) [Example 26, 27 (Enantiomer I)]
> 1	COCC1(C(=O)N2CCc3ncc(C(F)(F)F)cc3C2)CCN(Cc2ccc3ccc(=O)n(C)c3c2)C1 (single isomer, unassigned) [Example 26, 27 (Enantiomer II)]
< 0.2	COCC1(C(=O)N2CCc3ncc(C(F)(F)F)cc3C2)CCN(C2CCC(O)(c3ccc(OC)nc3)CC2)C1 (single isomer, unassigned) [Example 30, 31 (Isomer I), (1-(4-Hydroxy-4-(6-methoxypyridin-3-yl)cyclohexyl)-3-(methoxymethyl)pyrrolidin-3-yl)(3-(trifluoromethyl)-7,8-dihydro-1,6-naphthyridin-6(5H)-yl)methanone]
> 1	COCC1(C(=O)N2CCc3ncc(C(F)(F)F)cc3C2)CCN(C2CCC(O)(c3ccc(OC)nc3)CC2)C1 (single isomer, unassigned) [Example 30, 31 (Isomer II), (1-(4-Hydroxy-4-(6-methoxypyridin-3-yl)cyclohexyl)-3-(methoxymethyl)pyrrolidin-3-yl)(3-(trifluoromethyl)-7,8-dihydro-1,6-naphthyridin-6(5H)-yl)methanone]
< 0.2	COCC1(C(=O)N2CCc3ncc(C(F)(F)F)cc3C2)CCN(Cc2ccc3oc(=O)n(C)c3c2)C1 (single isomer, unassigned) [Example 40, 41 (Enantiomer I)]
0.2 to 1	COCC1(C(=O)N2CCc3ncc(C(F)(F)F)cc3C2)CCN(Cc2ccc3oc(=O)n(C)c3c2)C1 (single isomer, unassigned) [Example 40, 41 (Enantiomer II)]
< 0.2	COCC1(C(=O)N2CCc3ncc(C(F)(F)F)cc3C2)CCN(C2CCC(c3ccc(OC)nc3)CC2)C1 (single isomer, unassigned) [Example 50, 51 (Isomer I), (3-(Methoxymethyl)-1-(4-(6-methoxypyridin-3-yl)cyclohexyl)pyrrolidin-3-yl)(3-(trifluoromethyl)-7,8-dihydro-1,6-naphthyridin-6(5H)-yl)methanone]
< 0.2	COCC1(C(=O)N2CCc3ncc(C(F)(F)F)cc3C2)CCN(C2CCC(c3ccc(OC)nc3)CC2)C1 (single isomer, unassigned) [Example 50, 51 (Isomer II), (3-(Methoxymethyl)-1-(4-(6-methoxypyridin-3-yl)cyclohexyl)pyrrolidin-3-yl)(3-(trifluoromethyl)-7,8-dihydro-1,6-naphthyridin-6(5H)-yl)methanone]
0.2 to 1	COCC1(C(=O)N2CCc3ncc(C(F)(F)F)cc3C2)CCN(C2CCC(c3cncnc3)CC2)C1 (single isomer, unassigned) [Example 54, 55 (Isomer II), (3-(Methoxymethyl)-1-(4-(pyrimidin-5-yl)cyclohexyl)pyrrolidin-3-yl)(3-(trifluoromethyl)-7,8-dihydro-1,6-naphthyridin-6(5H)-yl)methanone]
< 0.2	COCC1(C(=O)N2CCc3ncc(C(F)(F)F)cc3C2)CCN(C2CCC(c3ccc(F)cc3)CC2)C1 (single isomer, unassigned) [Example 56, 57 (Isomer I), (1-(4-(4-Fluorophenyl)cyclohexyl)-3-(methoxymethyl)pyrrolidin-3-yl)(3-(trifluoromethyl)-7,8-dihydro-1,6-naphthyridin-6(5H)-yl)methanone]
0.2 to 1	CC(C)CC1(C(=O)N2CCc3ncc(C(F)(F)F)cc3C2)CCN(Cc2ccc3ccc(=O)n(C)c3c2)CC1 [Example 1, 7-((4-Isobutyl-4-(3-(trifluoromethyl)-5,6,7,8-tetrahydro-1,6-naphthyridine-6-carbonyl)piperidin-1-yl)methyl)-1-methylquinolin-2(1H)-one]
> 1	COc1cc(CN2CCC(CC(C)C)(C(=O)N3CCc4ncc(C(F)(F)F)cc4C3)CC2)ccc1O [Example 2, (1-(4-Hydroxy-3-methoxybenzyl)-4-isobutylpiperidin-4-yl)(3-(trifluoromethyl)-7,8-dihydro-1,6-naphthyridin-6(5H)-yl)methanone]
< 0.2	Cn1c(=O)ccc2ccc(CN3CCC(CC4CC4)(C(=O)N4CCc5ncc(C(F)(F)F)cc5C4)C3)cc21 (centres unmarked) [Example 3, 7-((3-(Cyclopropylmethyl)-3-(3-(trifluoromethyl)-5,6,7,8-tetrahydro-1,6-naphthyridine-6-carbonyl)pyrrolidin-1-yl)methyl)-1-methylquinolin-2(1H)-one]
0.2 to 1	COc1cc(CN2CCC(CC3CC3)(C(=O)N3CCc4ncc(C(F)(F)F)cc4C3)C2)ccc1O (centres unmarked) [Example 6, (1-(4-Hydroxy-3-methoxybenzyl)-3-(cyclopropylmethyl)pyrrolidin-3-yl)(3-(trifluoromethyl)-7,8-dihydro-1,6-naphthyridin-6(5H)-yl)methanone]
> 1	O=C(N1CCc2ncc(C(F)(F)F)cc2C1)C1(CC2CC2)CCN(Cc2ccc(O)c(F)c2)C1 (centres unmarked) [Example 7, (3-(Cyclopropylmethyl)-1-(3-fluoro-4-hydroxybenzyl)pyrrolidin-3-yl)(3-(trifluoromethyl)-7,8-dihydro-1,6-naphthyridin-6(5H)-yl)methanone]
0.2 to 1	O=C(N1CCc2ncc(C(F)(F)F)cc2C1)C1(CC2CC2)CCN(CC2CCOCC2)C1 (centres unmarked) [Example 8, (3-(Cyclopropylmethyl)-1-((tetrahydro-2H-pyran-4-yl)methyl)pyrrolidin-3-yl)(3-(trifluoromethyl)-7,8-dihydro-1,6-naphthyridin-6(5H)-yl)methanone]
0.2 to 1	CC1(C)CC(CN2CCC(CC3CC3)(C(=O)N3CCc4ncc(C(F)(F)F)cc4C3)C2)CCO1 (centres unmarked) [Example 9, (3-(Cyclopropylmethyl)-1-((2,2-dimethyltetrahydro-2H-pyran-4-yl)methyl)pyrrolidin-3-yl)(3-(trifluoromethyl)-7,8-dihydro-1,6-naphthyridin-6(5H)-yl)methanone]
> 1	COc1cc2c(cc1CN1CCC(CC3CC3)(C(=O)N3CCc4ncc(C(F)(F)F)cc4C3)C1)OC(C)C2 (centres unmarked) [Example 10, (3-(Cyclopropylmethyl)-1-((5-methoxy-2-methyl-2,3-dihydrobenzofuran-6-yl)methyl)pyrrolidin-3-yl)(3-(trifluoromethyl)-7,8-dihydro-1,6-naphthyridin-6(5H)-yl)methanone]
< 0.2	Cn1c(=O)sc2ccc(CN3CCC(CC4CC4)(C(=O)N4CCc5ncc(C(F)(F)F)cc5C4)C3)cc21 (centres unmarked) [Example 11, 5-((3-(Cyclopropylmethyl)-3-(3-(trifluoromethyl)-5,6,7,8-tetrahydro-1,6-naphthyridine-6-carbonyl)pyrrolidin-1-yl)methyl)-3-methylbenzo[d]thiazol-2(3H)-one]
0.2 to 1	O=C(N1CCc2ncc(C(F)(F)F)cc2C1)C1(CC2CC2)CCN(Cc2ccc3sc(=O)[nH]c3c2)C1 (centres unmarked) [Example 12, 5-((3-(Cyclopropylmethyl)-3-(3-(trifluoromethyl)-5,6,7,8-tetrahydro-1,6-naphthyridine-6-carbonyl)pyrrolidin-1-yl)methyl)benzo[d]thiazol-2(3H)-one]
> 1	O=C(N1CCc2ncc(C(F)(F)F)cc2C1)C1(CC2CC2)CCN(Cc2ccc3ccc(=O)[nH]c3c2)C1 (centres unmarked) [Example 15, 7-((3-(Cyclopropylmethyl)-3-(3-(trifluoromethyl)-5,6,7,8-tetrahydro-1,6-naphthyridin-6-carbonyl)pyrrolidin-1-yl)methyl)quinolin-2(1H)-one]
> 1	CC(c1ccc2c(c1)n(C)c(=O)n2C)N1CCC(CC2CC2)(C(=O)N2CCc3ncc(C(F)(F)F)cc3C2)C1 (centres unmarked) [Example 16, 5-(1-(3-(Cyclopropylmethyl)-3-(3-(trifluoromethyl)-5,6,7,8-tetrahydro-1,6-naphthyridine-6-carbonyl)pyrrolidin-1-yl)ethyl)-1,3-dimethyl-1H-benzo[d]imidazol-2(3H)-one]
